Source: patent US20150276751A1, “REAGENT FOR IMAGING INTRACELLULAR ACETYLATION” (JAPAN SCIENCE AND TECHNOLOGY AGENCY, priority 2012, published 2015)

What was measured:
[1] = Absorption and fluorescence properties of the rhodamine derivative before and after acetylation; format: physicochemical; conditions: for fluorescence maximum: excitation at 550 nm; for absorption maximum / molar absorption coefficient ε at absorption maximum: in PBS (medium given for compound 3); for fluorescence quantum yield: in PBS, rhodamine B as control
Source text: The compound 3 (RH—NH2) obtained had the absorption maximum (ε=71400 M^−1cm^−1) at 546 nm in PBS, fluorescence maximum at 570 nm with excitation at 550 nm, and fluorescence quantum yield of 4.9×10^−4 as measured in PBS using rhodamine B as a control. The acetylated compound 4 (RH—NHAc) had the absorption maximum (ε=35500 M^−1cm^−1) at 553 nm, fluorescence maximum at 572 nm with excitation at 550 nm, and fluorescence quantum yield of 0.12.

HeLa cells [2] = experiment: Staining and mitochondrial localization in HeLa cells (double staining with TagCFP-Mito); format: cell-based
Protocol: In order to visualize an intracellular acetylation, the following experiment was conducted by using the compound 3 as the rhodamine derivative. It is known that a positively charged rhodamine derivative structure such as tetramethylrhodamine migrates into cells and localizes in mitochondria (J. Circ. Res., 95, pp. 239-252, 2004; J. Biol. Chem., 264, pp. 8171-8178, 1989; Plos. One., 6, e23684, 2011; as especially for localization of 5-aminorhodamine derivatives in mitochondria, see, GB2283744 and U.S. Pat. No. 5,686,261). The compound 3 (10 μM) was allowed to act on the HeLa cells at 37° C. for 30 minutes in the Hanks' balanced salt solution (HBSS, 137 mM NaCl, 5.4 mM KCl, 1.3 mM CaCl2, 0.5 mM MgCl2, 0.4 mM MgSO4, 0.3 mM Na2HPO4, 0.4 mM KH2PO4, 4.2 mM NaHCO3, 5.6 mM D-glucose, 5 mM HEPES, adjusted to pH 7.4 with NaOH), the cells were washed twice with HBSS, and then fluorescence was measured.
The localization in the mitochondria of the HeLa cells was visualized by expression of TagCFP-Mito, which is a cyan fluorescent protein, and thereby confirmed. The HeLa cells were transfected with the pTagCFP-Mito vector (Evrogen) using Lipofectamine LTX (Invitrogen), and fluorescence was measured from 24 hours thereafter. The compound 3 was excited at 559 nm, and fluorescence of 580 to 680 nm was measured. TagCFP-Mito was excited at 440 nm, and fluorescence of 460 to 500 nm was measured. […]

HeLa cells [3] = experiment: Visualization of intracellular acetylation in HeLa cells by fluorescence enhancement; format: cell-based
Protocol: The acylation catalyst was added at the time point of 2 minutes, and N-methoxydiacetamide (NMD, 10 mM) was added as an acetylating agent at the time point of 7 minutes. Enhancement of the fluorescence intensity (F/F0) was calculated with an excitation wavelength of 550 nm and a fluorescence wavelength of 575 nm as an average of the results obtained from five cells. […] FIGS. 4, (c), (d), and (e) show color images of the HeLa cell after 1 minute, 5 minutes, and 10 minutes, respectively.
In view of the results of the model acetylation shown in Example 3, it is considered that enhancement of the intracellular fluorescence intensity was originated in acetylation advanced by physiological acetyl-CoA in the inside of mitochondria. […] Therefore, advance of the intracellular acetylation was successfully visualized by the compound 3 together with the physiological acetyl-CoA and the additionally added acetylating agent. It is known that the acetyl-CoA concentration in mitochondria is higher than the average intracellular acetyl-CoA concentration (J. Gen., Microbiol., 134, pp. 2249-2253, 1988), and the aforementioned results are consistent with this finding.

[4] = Acetylation of compound 3 by compound 6 (acetyl-CoA analogue) with tributylphosphine in PBS; conditions: compound 3 1 μM, tributylphosphine 10 mM, PBS pH 7.4, 1% DMSO, 25° C., ex 550 nm, em 575 nm
Protocol: The compound 3 (1 μM) was mixed with tributylphosphine (10 mM) as the acylation catalyst or acylation reaction-promoting agent, the compound 6 was added 1 minute afterward, and advance of the acetylation was measured over time at 25° C. in PBS (pH 7.4, 1% DMSO) in the same manner as that of Example 2. Fluorescence of 575 nm was measured with excitation at 550 nm. […] Correlation was observed between the fluorescence intensity and the concentration of the acetylating agent 1 minute after the addition of the acetylating agent (FIG. 2).

[5] = Acetylation of compound 3 by N-methoxydiacetamide in PBS with acylation catalyst, fluorescence change over time; conditions: for increase in fluorescence intensity over time vs. no catalyst: PBS pH 7.4, 1% DMSO, 25° C.
Protocol: The compound 3 (1 μM) and an acylation catalyst or acylation reaction-promoting agent (10 mM) were dissolved in PBS (pH 7.4, containing 1% DMSO), N-methoxydiacetamide (NMD, 0.1M) was added as an acetylating agent 1 minute afterward, and change of fluorescence was measured over time at 25° C.

[6] = compound 3 1 μM, catalyst 10 mM, NMD 0.1M

fluorescence maximum [1]	absorption maximum [1]	molar absorption coefficient ε at absorption maximum [1]	fluorescence quantum yield [1]	SMILES	increase in fluorescence intensity over time vs. no catalyst [5, 6]	also measured
570 nm	546 nm	71400 M⁻¹ cm⁻¹	4.9×10^−4	CN(C)c1ccc2c(-c3ccc(N)cc3)c3ccc(=[N+](C)C)cc-3oc2c1.O=C([O-])C(F)(F)F [compound 3, N-(9-(4-Aminophenyl)-6-(dimethylamino)-3H-xanthen-3-ylidene)-N-methylmethanaminium trifluoroacetate]	–	intracellular localization (staining image) (HeLa cells [2]; 10 μM, 37° C., 30 minutes, HBSS): localization of the compound in the mitochondria; consistency of fluorescence image with TagCFP-Mito image (HeLa cells [2]; ex 559 nm, em 580 to 680 nm, HeLa cells transfected with pTagCFP-Mito): well consistent with the fluorescence image of the cyan fluorescence protein expressed in the mitochondria; enhancement of fluorescence intensity over time, no catalyst (HeLa cells [3]; 37° C., absence of acylation catalyst or reaction-promoting agent): enhancement of fluorescence intensity was not observed; fluorescence intensity after further adding N-methoxydiacetamide (HeLa cells [3]; NMD 10 mM added at 7 minutes, after tributylphosphine 5 mM): the fluorescence intensity was further enhanced; enhancement of intracellular fluorescence intensity with tributylphosphine (HeLa cells [3]; compound 3 10 μM, tributylphosphine 5 mM added to medium, 37° C.): enhancement of intracellular fluorescence intensity was observed; increase of fluorescence on acetylation with compound 6 [4]: Rapid increase of fluorescence was obtained
572 nm	553 nm	35500 M⁻¹ cm⁻¹	0.12	CC(=O)Nc1ccc(-c2c3ccc(=[N+](C)C)cc-3oc3cc(N(C)C)ccc23)cc1.CC(=O)[O-] [compound 4, N-(9-(4-Acetamidophenyl)-6-(dimethylamino)-3H-xanthen-3-ylidene)-N-methylmethanaminium acetate]	–	–
–	–	–	–	CN(C)c1ccncc1 [dimethylaminopyridine]	larger increase in fluorescence intensity was observed over time	–
–	–	–	–	CCCCP(CCCC)CCCC [tributylphosphine]	larger increase in fluorescence intensity was observed over time	fluorescence intensity relative to that without addition of catalyst ([5]; 5 minutes after addition, compound 3 1 μM, catalyst 10 mM, NMD 0.1M, PBS pH 7.4, 25° C.): about 5 times; increase in reaction rate relative to reaction without catalyst ([5]; compared with rate at start of reaction without catalyst): about 5.5 times
